Patent US11576901B2, “Methods for treating viral infection” (HOWARD UNIVERSITY, priority 2016, dated 2023)

Columns and labels:
Format in all cases: cell-based
HSV-1 [1] = assay: qPCR of ICP-0 mRNA in HSV-1 infected Hep-2 cells; conditions: 100 μM, 24 hours pretreatment, 0, 6, 12 and 24 hours after infection, vs DMSO, FIG. 8
Source text: The inhibition of triggered expression of at least a portion of the HSV-1 genome and the inhibited proliferation of HSV-1, which may be the result of the former, indicate that compounds in accordance with General Formula 1, including derivatives in accordance with any of General Formulae 1-1 to 1-20, can treat viral infections. The treatment provided by compounds in accordance with General Formula 1, including derivatives in accordance with any of General Formulae 1-1 to 1-20, may be the result of either inhibition of transcription of viral mRNAs containing an IRES or the inhibited expression of viral proteins encoded by such within the IRES reading frame of such an mRNA. Determining whether mRNA transcription or protein expression is being inhibited can be accomplished by assessing the amount of mRNA containing an IRES is diminished by treatment with a compound in accordance with General Formula 1, including derivatives in accordance with any of General Formulae 1-1 to 1-20. FIG. 8 reports the amount of mRNA of the IE gene ICP-0 detected in Hep-2 cells following treatment with SD-29.
Hep-2 cells were pretreated with either DSMO as a control, 100 μM SD-29 or 100 μM SD29-12. After 24 hours of pretreatment, the Hep-2 cells were infected with HSV-1. At 0, 6, 12 and 24 hours after infection, the total RNA within the cells was isolated. […]

HSV-1 [2] = assay: Plaque forming assay, Hep-2 cell monolayers infected with HSV-1; conditions: Hep-2 cells, 100 μM
Description: The ability of a virus to infect cells can be assessed using a plaque assay. In a plaque assay, an infected cell culture is grown under a nutrient gel. During culturing, the virus being study infects cells and replicates. However, the spread of virus to other cells is limited by the overlaying nutrient gel. As such, replicated virus released from one infected cell can only infect neighboring cells. The spread of virus amongst neighboring cells creates a plaque that can be visualized by staining. By counting the visible plaques, the amount of plaque forming units (pfu) per mL can be determined. If cells treated with a compound display a reduced amount of pfu compared to cells not treated with the compound after being infected with same amount of viral particles, then the reduction in pfu would have to be result of the ability of the […] virus. Thus, the ability of a compound in accordance with General Formula 1, including derivatives in accordance with any of General Formulae 1-1 to 1-20, to inhibit the ability of HSV-1 to proliferate can be assessed with a plaque assay.
Hep-2 cell monolayers were placed in well plates. The plated Hep-2 cells were treated with either DSMO as a control, 100 μM SD-29 or 100 μM SD29-12. A total of 6 well plates were prepared for each treatment condition. To each treated well plate an HSV-1 infecting solution comprising 1 mL of supernatants containing of the same amount of serially diluted HSV-1 particles were added. Accordingly, the treated well plates were infected with infection solutions containing the same amount of HSV-1 particles. After adsorption for 2 hours, the medium was removed and the treated cells were washed twice with serum-free DMEM and overlaid with phenol-free DMEM containing 5% FCS, 0.5% low-melting point agarose (GIBCO), and 1% penicillin-streptomycin. After either 0, 6, 12, 24 hours, the plaques present in each treated well plate were stained red and the number of plaques presented counted. Table 1 reports the mean plaque forming unit (pfu) determined for each treated well plate after averaging the number of pfu from the different plates receiving the same treatment.

[3] = system: HIV1 modified pNL4-3.Luc.R-E-virus; assay: Western assay of HIV p24 gag expression in infected CEM T cells; conditions: Western assay with HIV p24 antibody, FIG. 4
Source text: The ability of a compound in accordance with General Formula 1, including derivatives in accordance with General Formulae 1-1 to 1-20, or pharmaceutically acceptable salts thereof, to inhibit the expression of at least a portion of a virus genome containing an IRES sequence can be also be determined by assessing the expression of a native protein within a viral genome. In some embodiments, the ability of a compound or pharmaceutically acceptable salt to inhibit expression of native protein can be assessed by using antibodies for a protein normally expressed from the virus genome. For example, HIV p24 gag is a protein normally expressed by HIV1 that can be detected using the HIVI p24 antibody. Accordingly, compounds in accordance with General Formula 1, including derivatives in accordance with any of General Formulae 1-1 to 1-20, or pharmaceutically acceptable salts thereof, can be assessed for the ability to inhibit proliferation of the HIV1 by infecting CEM T cells with the HIV1 modified pNL4-3.Luc.R-E-virus and assessing the expression of HIV p24 gag with the HIV p24 antibody. […]
A compound or salt may be wrongly classified as capable of inhibiting expression of at least a portion of a virus genome containing an IRES sequence due to unequal loading of proteins within an assay. […] In some embodiments, equivalent protein loading can be assessed by ponceau staining. […]

Question: How did the “ICP-0 mRNA level / transcription of IE genes” value (HSV-1 [1]) turn out when Nn1c(S)nnc1-c1ccc(F)cc1 [SD-29] was run?
Answer: The value was “does not inhibit transcription of mRNA corresponding to IE genes”.

Question: What about the “mean plaque forming unit (pfu)” value (HSV-1 [2]; 0 hpi) of the same compound?
Answer: The value was 0 pfu.

Question: What about the “mean plaque forming unit (pfu)” value (HSV-1 [2]; 6 hpi) of the same compound?
Answer: Its value is 0 pfu.

Question: And the “mean plaque forming unit (pfu)” value (HSV-1 [2]; 12 hpi)?
Answer: Its value is 100 pfu.

Question: And the “mean plaque forming unit (pfu)” value (HSV-1 [2]; 24 hpi)?
Answer: Its value is 180000 pfu.

Question: What about the “number of pfu compared to DMSO control (in words)” value (HSV-1 [2]; Table 1 and FIG. 7) of the same compound?
Answer: Its value is “reduced number of pfu compared to control”.

Question: What about the “expression of HIV p24 gag” value [3] of the same compound?
Answer: Its value is “does inhibit expression”.
